How the values were obtained:
Assay type in all cases: cell-based
CDK2 [1] = target: T1, CDK2 (Homo sapiens, UniProt P24941); assay: NanoBRET CDK2 engagement assay; parameters: expressed in transfected cells; conditions: OVCAR3 cells with stable CDK2-Luciferase vector, 24 hours treatment
Summary of the method: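 OVCAR3 cells stably expressing CDK2-luciferase, in Opti-MEM with 1% FBS, treated 24 h at 37° C with compound from 3 μM in ½-log steps to 0.3 nM; NanoBRET tracer present for final 2 h. Donor/acceptor emission read; engagement normalized to DMSO as 100% signal, IC50 by curve fit.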

CDK2 [2] = target: T1, CDK2; assay: Phospho-Rb HTRF measurement in OVCAR3 cells (inhibition of CDK2); parameters: High-Throughput Measurement of Cellular Endogenous CDK2; endogenous in cells; host or cells: OVCAR3; conditions: pRB(S807/811) assay, 24 h compound treatment
CDK2 [3] = target: T1, CDK2; assay: CDK2 HTRF assay (cellular endogenous CDK2 level); parameters: High-Throughput Measurement of Cellular Endogenous CDK2; endogenous in cells; host or cells: OVCAR3; conditions: OVCAR-3; OVCAR3 cells, 24 hours, 0.3 to 10,000 nM; read-out: max degradation of CDK2
Method: Effects of compounds on cellular CDK2 level can be monitored by a high-throughput HTRF assay or traditional Western Blot assay.
To determine half maximal degradation concentration (DC50) values of compounds, cellular CDK2 level was measured in 96-well format using HTRF total CDK2 cellular kit (Cat #64CDK2TPEG) from Cisbio.
On Day 1, OVCAR3 cells were seeded into 96-well tissue-culture treated plates at 20,000 cells/well in 200 μL and incubated overnight at 37° C. in CO2 atmosphere. On Day 2 cells were treated with compounds at concentration ranging from 0.3 to 10,000 nM using HP D300 digital dispenser. 24 hours after compound treatment, cell culture media was removed by flicking the plate and tapping the plate against clean paper towel. Immediately 30 μL 1× lysis buffer was supplemented from the kit and the plate was incubated at room temperature on shaker for 30 min. After homogenization by pipetting up and down, 8 μL cell lysate from 96-well cell culture plate was transferred to 384-well small volume white detection plate. 2 μL premixed detection solution was added and the plate was covered with sealer. To prepare the detection solution, d2 conjugated-CDK2 antibody and Eu-cryptate conjugated CDK2 antibody were diluted into detection buffer following manufacturer's instruction. Detection plates were incubated overnight at room temperature and read on ClarioStar (BMG Labtech) in TR-FRET mode (665 nM and 620 nM). The TR-FRET ratio (665 nM/620 nM) was plotted against the compound concentration and normalized to DMSO controls. Half maximal degradation concentration (DC50) values were calculated with a four-parameter logistic fit using GraphPad Prism (version 8; La Jolla, CA). FIG. 1 provides a dose-response curve of Compound 1 in Compound Table I in cellular CDK2 HTRF assay. IC50 in FIG. 1 is the same as DC50. Compounds 1, 13, 16, 22, 23, 28, 34, 35, 36, 37, 38, 39, 42, 48, 50, 51, 53, 54, 55, 56, 57, 58, 59, 60, 61, 62, 63, 65, 66, 68, 69, 70 were tested and max degradation of CDK2 observed was from about 35% to about 90%.

SMILES | IC50 (CDK2 [1]) | IC50 (CDK2 [2]) | Dmax (CDK2 [3])
O=C1CCC(N2C(=O)c3cc(F)c(N4CCN(Cc5cccc(S(=O)(=O)N6CC[C@H](Nc7ncc8ccc(=O)n(C9CCCC9)c8n7)[C@H](F)C6)c5)CC4)cc3C2=O)C(=O)N1 (stereo partly drawn) [Compound 63, 5-(4-(3-(((3R,4S)-4-((8-cyclopentyl-7-oxo-7,8-dihydropyrido[2,3-d]pyrimidin-2-yl)amino)-3-fluoropiperidin-1-yl)sulfonyl)benzyl)piperazin-1-yl)-2-(2,6-dioxopiperidin-3-yl)-6-fluoroiso-indoline-1,3-dione] | 265 nM | 180 nM | 35 to 90%
O=C1CCC(N2Cc3cc(N4CC5(CCN(Cc6cccc(S(=O)(=O)N7CCC(Nc8ncc9ccc(=O)n(C%10CCCC%10)c9n8)CC7)c6)CC5)C4)ccc3C2=O)C(=O)N1 (stereo not drawn) [Compound 58, 3-(5-(7-(3-((4-((8-cyclopentyl-7-oxo-7,8-dihydropyrido[2,3-d]pyrimidin-2-yl)amino)-piperidin-1-yl)sulfonyl)benzyl)-2,7-diazaspiro-[3.5]nonan-2-yl)-1-oxoisoindolin-2-yl)piperidine-2,6-dione] | 291 nM | 155 nM | 35 to 90%
O=C1CCC(N2Cc3cc(N4CCN(C5CN(c6cccc(S(=O)(=O)N7CCC(Nc8ncc9ccc(=O)n(C%10CCCC%10)c9n8)CC7)c6)C5)CC4)ccc3C2=O)C(=O)N1 (stereo not drawn) [Compound 70, 3-(5-(4-(1-(3-((4-((8-cyclopentyl-7-oxo-7,8-dihydropyrido[2,3-d]pyrimidin-2-yl)amino)-piperidin-1-yl)sulfonyl)phenyl)-azetidin-3-yl)piperazin-1-yl)-1-oxoisoindolin-2-yl)piperidine-2,6-dione] | 40.2 nM | 25.8 nM | 35 to 90%
Cn1c(=O)n(C2CCC(=O)NC2=O)c2cccc(C3CCN(C4CCN(c5cccc(S(=O)(=O)N6CCC(Nc7ncc8ccc(=O)n(C9CCCC9)c8n7)CC6)c5)CC4)CC3)c21 (stereo not drawn) [Compound 39, 3-(4-(1′-(3-((4-((8-cyclopentyl-7-oxo-7,8-dihydro-pyrido[2,3-d]pyrimidin-2-yl)amino)piperidin-1-yl)sulfonyl)phenyl)-[1,4′-bipiperidin]-4-yl)-3-methyl-2-oxo-2,3-dihydro-1H-benzo[d]imidazol-1-yl)piperidine-2,6-dione] | 94 nM | 490 nM | 35 to 90%
O=C1CCC(N2Cc3cc(N4CC5CC4CN5Cc4cccc(S(=O)(=O)N5CCC(Nc6ncc7ccc(=O)n(C8CCCC8)c7n6)CC5)c4)ccc3C2=O)C(=O)N1 (stereo not drawn) [Compound 53, 3-(5-(5-(3-((4-((8-cyclopentyl-7-oxo-7,8-dihydropyrido[2,3-d]pyrimidin-2-yl)amino)-piperidin-1-yl)sulfonyl)benzyl)-2,5-diazabicyclo-[2.2.1]heptan-2-yl)-1-oxoisoindolin-2-yl)-piperidine-2,6-dione] | 152 nM | 259 nM | 35 to 90%
O=C1CCC(N2C(=O)c3cccc(NCCOCCOCCOCCOCCNS(=O)(=O)N4CCC(Nc5ncc6ccc(=O)n(C7CCCC7)c6n5)CC4)c3C2=O)C(=O)N1 (stereo not drawn) [compound 1, 4-((8-cyclopentyl-7-oxo-7,8-dihydro-pyrido[2,3-d]pyrimidin-2-yl)amino)-N-(14-((2-(2,6-dioxopiperidin-3-yl)-1,3-dioxoisoindolin-4-yl)amino)-3,6,9,12-tetraoxatetradecyl)piperidine-1-sulfonamide] | 403 nM | 440 nM | 35 to 90%
O=C1CCC(N2Cc3cc(N4CC5(CN(Cc6cccc(S(=O)(=O)N7CCC(Nc8ncc9ccc(=O)n(C%10%11CC(C%10)C%11)c9n8)CC7)c6)C5)C4)ccc3C2=O)C(=O)N1 (stereo not drawn) [Compound 62, 3-(5-(6-(3-((4-((8-(bicyclo[1.1.1]pentan-1-yl)-7-oxo-7,8-dihydropyrido[2,3-d]pyrimidin-2-yl)-amino)piperidin-1-yl)sulfonyl)benzyl)-2,6-diazaspiro[3.3]heptan-2-yl)-1-oxoisoindolin-2-yl)-piperidine-2,6-dione] | 284 nM | 21.8 nM | 35 to 90%
O=C1CCC(N2Cc3cc(C4CCN(CC5CCN(c6cccc(S(=O)(=O)N7CCC(Nc8ncc9ccc(=O)n(C%10CCCC%10)c9n8)CC7)c6)CC5)CC4)ccc3C2=O)C(=O)N1 (stereo not drawn) [Compound 35, 3-(5-(1-((1-(3-((4-((8-cyclopentyl-7-oxo-7,8-dihydropyrido[2,3-d]pyrimidin-2-yl)amino)-piperidin-1-yl)sulfonyl)phenyl)piperidin-4-yl)-methyl)piperidin-4-yl)-1-oxoisoindolin-2-yl)piperidine-2,6-dione] | 139 nM | 71100 nM | 35 to 90%
O=C1CCC(N2Cc3cc(CN4CCC(Oc5cccc(S(=O)(=O)N6CCC(Nc7ncc8ccc(=O)n(C9CCCC9)c8n7)CC6)c5)CC4)ccc3C2=O)C(=O)N1 (stereo not drawn) [Compound 66, 3-(5-((4-(3-((4-((8-cyclopentyl-7-oxo-7,8-dihydropyrido[2,3-d]pyrimidin-2-yl)amino)-piperidin-1-yl)sulfonyl)phenoxy)-piperidin-1-yl)-methyl)-1-oxoisoindolin-2-yl)piperidine-2,6-dione] | 46 nM | 107 nM | 35 to 90%
O=C1CCC(N2Cc3cc(CNCCOc4cccc(S(=O)(=O)N5CCC(Nc6ncc7ccc(=O)n(C8CCCC8)c7n6)CC5)c4)ccc3C2=O)C(=O)N1 (stereo not drawn) [Compound 68, 3-(5-(((2-(3-((4-((8-cyclopentyl-7-oxo-7,8-dihydropyrido[2,3-d]pyrimidin-2-yl)amino)-piperidin-1-yl)sulfonyl)phenoxy)ethyl)amino)-methyl)-1-oxoisoindolin-2-yl)piperidine-2,6-dione] | 197 nM | 29.4 nM | 35 to 90%
O=C1CCC(N2Cc3cc(N4CCC5(CC4)CN(Cc4cccc(S(=O)(=O)N6CCC(Nc7ncc8ccc(=O)n(C9CCCC9)c8n7)CC6)c4)C5)ccc3C2=O)C(=O)N1 (stereo not drawn) [Compound 57, 3-(5-(2-(3-((4-((8-cyclopentyl-7-oxo-7,8-dihydro-pyrido[2,3-d]pyrimidin-2-yl)amino)piperidin-1-yl)sulfonyl)benzyl)-2,7-diazaspiro[3.5]nonan-7-yl)-1-oxoisoindolin-2-yl)piperidine-2,6-dione] | 169 nM | 49.6 nM | 35 to 90%
CC1(O)CCCC1n1c(=O)ccc2cnc(NC3CCN(S(=O)(=O)c4cccc(CN5CCN(c6ccc7c(c6)CN(C6CCC(=O)NC6=O)C7=O)CC5)c4)CC3)nc21 (stereo not drawn) [Compound 55, 3-(5-(4-(3-((4-((8-(2-hydroxy-2-methyl-cyclopentyl)-7-oxo-7,8-dihydropyrido[2,3-d]-pyrimidin-2-yl)amino)piperidin-1-yl)sulfonyl)-benzyl)piperazin-1-yl)-1-oxoisoindolin-2-yl)-piperidine-2,6-dione] | 736 nM | 70 nM | 35 to 90%
Cn1c(=O)n(C2CCC(=O)NC2=O)c2cccc(C#CCOC3CCN(CC4CCN(S(=O)(=O)N5CCC(Nc6ncc7ccc(=O)n(C8CCCC8)c7n6)CC5)CC4)CC3)c21 (stereo not drawn) [Compound 13, 3-(4-(3-((1-((1-((4-((8-cyclopentyl-7-oxo-7,8-dihydropyrido[2,3-d]pyrimidin-2-yl)amino)-piperidin-1-yl)sulfonyl)piperidin-4-yl)methyl)-piperidin-4-yl)oxy)prop-1-yn-1-yl)-3-methyl-2-oxo-2,3-dihydro-1H-benzo[d]imidazol-1-yl)-piperidine-2,6-dione] | 292 nM | 2120 nM | 35 to 90%
